The source made the active and inactive calls. The rule behind the calls is not given here. Numbered stars: 1 amine (or outer) side, 2 acyl side, 3 side chain; on linkers, the order of the positions; unused ones are H or OH. Square brackets hold non-standard residues; d marks the D form. Peptide text beside a SMILES is read from it. Azetidine3carboxylic = O=C(C1CN([*:1])C1)[*:2]; βPro(3R) = O=C([C@@H]1CCN([*:1])C1)[*:2]; βPro(3S) = O=C([C@H]1CCN([*:1])C1)[*:2]; X2 = O=C([C@H]1CCCN([*:1])C1)[*:2]; βAla = NCCC(=O)O
target: Ephrin type-A receptor 4 (Homo sapiens) (UniProt P54764); test: Binding affinity to EphA4-LBD (unknown origin) at 40 uM by isothermal titration calorimetry; conditions: not given
Sequence (P54764 whole entry, the tested form may be a part): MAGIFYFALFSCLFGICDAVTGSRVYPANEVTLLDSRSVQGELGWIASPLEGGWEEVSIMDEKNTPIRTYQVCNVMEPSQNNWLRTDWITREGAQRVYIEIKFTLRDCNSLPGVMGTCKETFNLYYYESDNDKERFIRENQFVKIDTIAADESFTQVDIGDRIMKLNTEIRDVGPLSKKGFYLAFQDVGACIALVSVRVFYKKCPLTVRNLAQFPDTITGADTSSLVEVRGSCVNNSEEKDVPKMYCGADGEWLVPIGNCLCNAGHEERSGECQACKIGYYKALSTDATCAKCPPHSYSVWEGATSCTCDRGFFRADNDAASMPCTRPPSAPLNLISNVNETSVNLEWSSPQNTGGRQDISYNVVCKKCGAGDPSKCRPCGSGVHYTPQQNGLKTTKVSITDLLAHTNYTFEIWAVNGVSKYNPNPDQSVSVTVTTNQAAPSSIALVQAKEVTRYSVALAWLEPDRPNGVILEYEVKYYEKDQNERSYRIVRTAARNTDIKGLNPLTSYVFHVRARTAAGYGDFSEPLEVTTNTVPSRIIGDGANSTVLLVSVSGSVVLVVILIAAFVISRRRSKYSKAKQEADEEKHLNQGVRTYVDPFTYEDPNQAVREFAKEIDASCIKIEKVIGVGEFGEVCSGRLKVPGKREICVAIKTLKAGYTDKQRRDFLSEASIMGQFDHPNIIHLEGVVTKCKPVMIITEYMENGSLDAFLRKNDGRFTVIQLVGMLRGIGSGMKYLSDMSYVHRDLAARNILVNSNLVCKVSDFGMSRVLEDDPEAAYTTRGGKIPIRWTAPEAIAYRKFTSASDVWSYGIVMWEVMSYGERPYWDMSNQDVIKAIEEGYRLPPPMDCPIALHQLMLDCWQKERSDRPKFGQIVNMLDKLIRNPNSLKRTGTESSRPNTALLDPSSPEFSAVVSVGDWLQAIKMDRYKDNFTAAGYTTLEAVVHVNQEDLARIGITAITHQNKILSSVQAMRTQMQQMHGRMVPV

Activity	SMILES
inactive	CC(C)[C@H](NC(=O)[C@H](C)NC(=O)[C@H](Cc1ccc(O)cc1)NC(=O)[C@@H]1CCCN1C(=O)CCN)C(=O)N[C@@H](Cc1ccc(O)cc1)C(=O)N[C@@H](CCCNC(=N)N)C(=O)N1CC(C(=O)N[C@@H](CO)C(=O)N[C@@H](Cc2c[nH]c3ccccc23)C(=O)N[C@@H](CO)C(=O)N[C@@H](C)C(N)=O)C1 (H-[βAla]PYAVYR[Azetidine3carboxylic]SWSA-NH2)
inactive	CC(C)[C@H](NC(=O)[C@H](C)NC(=O)[C@H](Cc1ccc(O)cc1)NC(=O)[C@@H]1CCCN1C(=O)CCN)C(=O)N[C@@H](Cc1ccc(O)cc1)C(=O)N[C@@H](CCCNC(=N)N)C(=O)N[C@H]1CC[C@@H]1C(=O)N[C@H](CO)C(=O)N[C@@H](Cc1c[nH]c2ccccc12)C(=O)N[C@@H](CO)C(=O)N[C@@H](C)C(N)=O
inactive	CC(C)[C@H](NC(=O)[C@H](C)NC(=O)[C@H](Cc1ccc(O)cc1)NC(=O)[C@@H]1CCCN1C(=O)CCN)C(=O)N[C@@H](Cc1ccc(O)cc1)C(=O)N[C@@H](CCCNC(=N)N)C(=O)N1CC[C@H]1C(=O)N[C@@H](CO)C(=O)N[C@@H](Cc1c[nH]c2ccccc12)C(=O)N[C@@H](CO)C(=O)N[C@@H](C)C(N)=O
inactive	CC(C)[C@H](NC(=O)[C@H](C)NC(=O)[C@H](Cc1ccc(O)cc1)NC(=O)[C@@H]1CCCN1C(=O)CCN)C(=O)N[C@@H](Cc1ccc(O)cc1)C(=O)N[C@@H](CCCNC(=N)N)C(=O)N1CC[C@@H]1C(=O)N[C@@H](CO)C(=O)N[C@@H](Cc1c[nH]c2ccccc12)C(=O)N[C@@H](CO)C(=O)N[C@@H](C)C(N)=O
inactive	CC(C)[C@H](NC(=O)[C@H](C)NC(=O)[C@H](Cc1ccc(O)cc1)NC(=O)[C@@H]1CCCN1C(=O)CCN)C(=O)N[C@@H](Cc1ccc(O)cc1)C(=O)N[C@@H](CCCNC(=N)N)C(=O)N1CC[C@H](C(=O)N[C@@H](CO)C(=O)N[C@@H](Cc2c[nH]c3ccccc23)C(=O)N[C@@H](CO)C(=O)N[C@@H](C)C(N)=O)C1 (H-[βAla]PYAVYR[βPro(3S)]SWSA-NH2)
inactive	CC(C)[C@H](NC(=O)[C@H](C)NC(=O)[C@H](Cc1ccc(O)cc1)NC(=O)[C@@H]1CCCN1C(=O)CCN)C(=O)N[C@@H](Cc1ccc(O)cc1)C(=O)N[C@@H](CCCNC(=N)N)C(=O)N1CCC[C@H](C(=O)N[C@@H](CO)C(=O)N[C@@H](Cc2c[nH]c3ccccc23)C(=O)N[C@@H](CO)C(=O)N[C@@H](C)C(N)=O)C1 (H-[βAla]PYAVYR[X2]SWSA-NH2)
inactive	CC(C)[C@H](NC(=O)[C@H](C)NC(=O)[C@H](Cc1ccc(O)cc1)NC(=O)[C@@H]1CCCN1C(=O)CCN)C(=O)N[C@@H](Cc1ccc(O)cc1)C(=O)N[C@@H](CCCNC(=N)N)C(=O)N1CC[C@@H](C(=O)N[C@@H](CO)C(=O)N[C@@H](Cc2c[nH]c3ccccc23)C(=O)N[C@@H](CO)C(=O)N[C@@H](C)C(N)=O)C1 (H-[βAla]PYAVYR[βPro(3R)]SWSA-NH2)

target: Ephrin type-A receptor 4 (Mus musculus) (UniProt Q03137); test: Induction of EphA4 phosphorylation in C57BL/6 mouse Primary cortical neuron at 1 to 10 uM incubated for 30 mins by immunoprecipitation based Western blot analysis; format: cell-based; conditions: dose 1-10 µM
Sequence (Q03137 whole entry): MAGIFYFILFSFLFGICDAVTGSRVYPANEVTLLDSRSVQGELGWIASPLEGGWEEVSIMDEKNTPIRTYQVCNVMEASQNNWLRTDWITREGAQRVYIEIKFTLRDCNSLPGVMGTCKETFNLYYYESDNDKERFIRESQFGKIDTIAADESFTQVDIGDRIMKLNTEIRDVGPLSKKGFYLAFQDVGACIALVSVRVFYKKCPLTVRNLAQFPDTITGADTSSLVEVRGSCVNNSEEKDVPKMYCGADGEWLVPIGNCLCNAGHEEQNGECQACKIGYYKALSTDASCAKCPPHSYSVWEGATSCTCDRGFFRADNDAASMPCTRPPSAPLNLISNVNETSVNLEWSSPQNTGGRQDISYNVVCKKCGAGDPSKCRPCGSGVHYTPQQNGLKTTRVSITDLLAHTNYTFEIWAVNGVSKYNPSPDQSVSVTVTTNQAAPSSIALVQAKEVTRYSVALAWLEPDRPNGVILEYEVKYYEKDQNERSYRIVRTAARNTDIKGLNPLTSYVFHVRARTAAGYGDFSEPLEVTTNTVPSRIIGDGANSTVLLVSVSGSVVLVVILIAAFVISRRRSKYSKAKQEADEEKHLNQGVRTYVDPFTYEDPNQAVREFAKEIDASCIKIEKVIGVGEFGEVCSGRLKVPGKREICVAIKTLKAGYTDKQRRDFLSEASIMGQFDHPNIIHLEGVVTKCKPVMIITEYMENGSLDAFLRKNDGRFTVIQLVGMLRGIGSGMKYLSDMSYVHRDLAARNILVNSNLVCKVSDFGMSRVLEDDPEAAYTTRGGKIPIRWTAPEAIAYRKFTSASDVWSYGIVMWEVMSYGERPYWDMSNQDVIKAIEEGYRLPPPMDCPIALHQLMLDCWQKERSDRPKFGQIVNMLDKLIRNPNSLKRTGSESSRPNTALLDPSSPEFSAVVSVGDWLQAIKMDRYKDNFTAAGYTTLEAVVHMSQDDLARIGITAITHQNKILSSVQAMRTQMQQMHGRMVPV

Activity	SMILES
inactive	CC(C)[C@H](NC(=O)[C@H](CS)NC(=O)[C@H](Cc1ccc(O)cc1)NC(=O)[C@@H]1CCCN1C(=O)CCN)C(=O)N[C@@H](Cc1ccc(O)cc1)C(=O)N[C@@H](CCCNC(=N)N)C(=O)NCCC(=O)N[C@@H](CO)C(=O)N[C@@H](Cc1cc2ccccc2[nH]1)C(=O)N[C@@H](CO)C(=O)N[C@@H](CS)C(N)=O

From ChEMBL document CHEMBL6078699, “Constrained β-Hairpins Targeting the EphA4 Ligand Binding Domain” (J Med Chem, 2024)
